This is an account of results in patent publication US8772029B2, “Modulation of oocyte meiotic progression and oocyte activation” (Northwestern University, priority 2011, dated 2014).

Assay [1] has as its system oocytes. Kind of assay: Spindle phenotype scoring after in vitro maturation (IVM) with TPEN, MI-MII transition. It counts as cell-based, mouse. On the procedure: For IVM studies, immature female CD1 mice (17 to 21 day old) were injected with 5IU equine chorionic gonadotropin (eCG) (Calbiochem, La Jolla, CA) in 100 μL sterile phosphate-buffered saline (PBS), intraperitoneally. After 44 to 48 hours, mice were anesthetized using isoflurane and euthanized by cervical dislocation. Dissected ovaries were placed in Leibovitz L-15 medium containing 1% FBS (L-15/FBS) and 0.2mM 3-isobutyl-1-methylxanthine (IBMX), and large antral follicles were punctured using 28 gauge needles to release cumulus oocyte complexes (COCs). COCs were washed through several drops of culture medium consisting of Minimum Essential Medium (MEM)-alpha with GLUTAMAX supplemented with 10% FBS, 1.5IU/mL human chorionic gonadotropin (hCG), and 5ng/mL epidermal growth factor and placed in culture medium with or without 10 μM N,N,N′,N′-tetrakis(2-pyridylmethyl) ethylenediamine (TPEN). In some experiments Z-Leu-Leu-Leu-al (MG132) was added to culture medium at 20 μM. COCs were cultured in drops of pre-equilibrated medium covered with embryo quality mineral oil at 37° C. in 5% CO2 with a humid environment. Ovulated MII eggs were collected from 4 to 6 week old mice primed with 5IU PMSG followed 48 h later by 5IU hCG. Oviducts were dissected into L-15/FBS, and eggs were removed and treated with 0.03% (w/v) hyaluronidase to remove cumulus cells. Eggs were washed and cultured in potassium simplex optimized medium (KSOM) (Millipore, Billerica, MA) covered with embryo quality mineral oil at 37° C. in 5% CO2.
Oocytes were denuded of cumulus cells and fixed in a microtubule stabilizing buffer (Ibanez et al., 2005) containing 2% formaldehyde and 1% Triton X-100 for 30 min at 37° C. Oocytes were washed and blocked in PBS containing 0.1M glycine, 3mg/mL BSA, 0.01% Tween 20, and 0.01% sodium azide for at least 1 h and were stored in blocking solution at 4° C. for up to 2 weeks. Oocytes were incubated with anti-tubulin antibody (1:100) for 1 h at 37C. followed by three washes in blocking solution. They were then incubated for 1 h in AlexaFluor-488 conjugated anti-mouse secondary antibody (5μg/mL) and rhodamine-phalloidin (2U/mL), washed three additional times, and mounted in VECTASHIELD with DAPI. Microscopy was performed using a Leica SP5 inverted laser-scanning confocal microscope with a 63x oil immersion objective (Leica Microsystems, Heidelberg, Germany). Images were processed using LAS AF software (Leica Microsystems). […]
Oocytes treated with TPEN during the MI-MII transition fail to enter MII. Following IVM under the conditions listed in control (C) or TPEN-containing (T) medium, oocytes were stained and imaged, and their spindle phenotypes were scored.

Assay [2] deals with oocytes. The following applies: literature (Kim et al 2010, Bernhardt et al 2011); cited from earlier work.
Setting [3] is: COCs in control medium 7.5 h, then 10 μM TPEN 6.5 h, n=42.
[4] abbreviates: COCs in control medium 7.5 h, then 10 μM TPEN 6.5 h, n=42, listed as T.

`c1ccc(CN(CCN(Cc2ccccn2)Cc2ccccn2)Cc2ccccn2)nc1` [TPEN, N,N,N′,N′-tetrakis(2-pyridylmethyl)ethylenediamine]: in the assay on oocytes [1] (setting [3]), the “TPEN-like (telophase-I arrest-like) spindle phenotype” value was 31%; the “normal MII spindle” value was “failed to form MII spindles and none”; the “other (>2 chr. masses) spindle phenotype” value is 19%; the “partial TPEN-like (chromatin mass) spindle phenotype” value (from here on “partial TPEN-like”) was 54%. In the assay on oocytes [1] (setting [4]), the “TPEN-like (telophase-I arrest-like) spindle phenotype” value amounted to 31%, the “normal MII spindle” value was determined as 0% and the “partial TPEN-like” value is on record as 54%. Moreover, in the assay on oocytes [1] (TPEN 14 h IVM, n=34), the “TPEN-like (telophase-I arrest-like) spindle phenotype” value was 91%, the “normal MII spindle” value came to 0%, the “other (>2 chr. masses) spindle phenotype” value amounted to 6% and the “partial TPEN-like” value came to 3%. In addition, in the assay on oocytes [2], the “meiotic arrest on TPEN treatment during the MI-MII transition” value is “causes meiotic arrest at telophase-I”.
